In patent US5604255A, “N-(1-thienylcycloalkyl)alkenylamines for treatment of neurotoxic injury” (priority 1994, dated 1997):

Key:
NMDA [1] = details: Anis et al, Br. J. Pharmacol., 79, 565 (1983); cited from earlier work
PCP receptors = test: Radioreceptor assay, displacement of 3H-TCP from rat brain membranes; details: read-out: Ki apparent; units + SEM; 1 nM 3H-TCP, whole rat brain membranes, 1 hour incubation
rats = test: Behavioral assay, stereotyped behavior in rats; format: in vivo, Male Sprague-Dawley rats; details: for Stereotyped Behavior ED50: i.c.v., at time of maximal behavioral effect, parentheses: 95% confidence intervals
Experimental: Compound No. 1 was tested in comparison with PCP and TCP by an in vivo assay which determined stereotypic behavior in rats treated with the compounds. Male Sprague-Dawley rats weighing 200 to 250 g were used in the behavioral experiments. Each rat was used only once. Rats were anesthetized lightly with ether before a 20-gauge needle was used to make a hole in the rat's skull for i.c.v. injection of drugs at a later date. The rats were allowed to recover for at least 1 day before being used in the behavioral assays. On the day of the experiment, rats were placed individually into plastic rat cages and allowed at least 1 hr to acclimate before testing. Drugs were administered to rats in a random, single-blind fashion. Behavioral ratings were taken at 5-min intervals up to 1 hr after drug administration i.c.v. using the PCP rating scale as described by Sturgeon et al [Sturgeon, R. D., Fessler, R. G. and Meltzer, H. Y., "Behavioral Rating Scales for Accessing Phencyclidine-Induced Locomotor Activity, Stereotyped Behavior And Ataxia In Rats", European J. Pharmacol. 59 169, (1970)].
Dose-response curves for each treatment were determined at the time of maximal behavioral effect. Peak effects were found 5 min after i.c.v. administration of PCP (25-20000 nmol/rat). […] A rating of 5 in the PCP-rating scale was considered as complete stereotyped behavior, that is, a 100% response. At least 21 rats (at least seven rats/dose) were used to determine each dose-response curve and EDso values. ED50 values and dose-response curves were evaluated using a computerized Finney assay [Statistical Methods In Biological Assays, 2nd Edn., Hatner Pub. Co., New York (1964)].
The ability of the tested compounds to induce stereotyped behavior was assessed at 2.5, 5 and 10 minutes and thereafter every 5 min up to 1 hr after i.c.v., i.p., or s.c. administration.

Quis = test: NMDA/KA antagonist assay in embryo retina: blocking Quis neurotoxicity; parameters: species or system chick embryo; details: Quis 50 μM, 30 min, 37° C.; footnote: @ up to 500 μM
Experimental: (§1) A 15-day old chick embryo retina, incubated for 30 min. in a balanced salt solution (BSS) containing 1 mM Glu, developed a full lesion characteristic of an immature mouse retina following s.c. administration of Glu. Other excitotoxin agonists also produce acute lesions within 30 min., each agent being effective at a concentration proportional to its known excitatory and toxic potencies. The pattern of cellular degeneration is restricted in each case to the ganglion cell, inner plexiform and inner nuclear layers, but within these areas certain agonists induce different patterns of degeneration, the differences being most pronounced between NMA and KA. Four agonists were employed in the present test, each at a concentration established previously to be the lowest concentration required to consistently cause a fully-developed retinal lesion: KA (25 μM), Quis (50 μM), NMA (200 μM) and Glu (1000 μM). Compound No. 1 and other PCP-like compounds were tested at various concentrations for their ability to prevent KA, Quis, NMA or Glu neurotoxicity. […] Internal controls in each experiment consisted of at least six specimens being incubated with agonist alone. A typical toxic reaction had to be present in all controls and absent from all experimental specimens in order to qualify as a blocking effect. The method of tissue preparation was as follows: 15-day old chick embryos were decapitated and their eyes removed and cut into quadrants after excising the cornea and removing the lens, vitreous and iris. The retinal quadrants were then gently separated from the pigment epithelium and incubated for 30 min. at 37° C. in BSS to which an agonist or agonist plus antagonist was added. The BSS contained 140 mMNa^+, 5.0 mM K^+, 0.5 mM Ca^++, 4.5 mM Mg^++, 150 mM Cl^-, 5.6 mM glucose and bicarbonate/phosphate buffer (pH 7.3). […]

hippocampal neurons [2] = test: Chronic hypoxic insult assay (MTT neuronal survival); format: cell-based, Sprague-Dawley rats
Experimental: Compound No. 1 was tested for its ability to protect hippocampal neurons from hypoxia-induced cell death. Cultures of hippocampal neurons were prepared from embryonic day 17 Sprague-Dawley rats. The hippocampi were dissociated into a single cell suspension by incubation with 0.25% trypsin, 40 mg/ml DNase followed by gentle trituration through a Pasteur pipet. The cells were plated in a polylysine-coated 96-well plate and maintained in a chemically defined medium until use. The cells were grown for 2 to 3 weeks in 5% CO2 -in-air humidified environment at 36° C. to establish a thick network of neuronal processes with numerous spontaneously active synapses. […] Following 2 hours of exposure to normal O2 tension, the cultures were processed for morphological and quantitive biochemical neuronal cell viability assays.
The neuronal survival assay utilized the compound MTT [(3-(4,5-dimethylthiazol-2-yl)-2,5-diphenyl tetrazolium bromide)], a pale yellow substrate that is cleaved by the mitochondrial enzyme succinate-dehydrogenase to yield a dark blue formazan product. […] The precipitate was then solubilized using 0.08N HCl/isopropanol mixture and the absorbance measured with an ELISA plate reader (Dynatech MR600) using a test wavelength of 570 nm and a reference wavelength of 630 nm. […]

hippocampal neurons [3] = test: Acute azide toxicity assay (MTT neuronal survival); format: cell-based, Sprague-Dawley rats
hippocampal neurons [4] = test: Glutamate neurotoxicity assay (MTT neuronal survival); format: cell-based, Sprague-Dawley rats; details: for Protection from glutamate toxicity: 500 μM glutamate, 1 hour; for Optical Density (MTT, viable cells): units + SDM, 500 μM glutamate 1 hour, control 0.163, glutamate 0.092
Experimental: Compound No. 1 was tested for its ability to protect hippocampal neurons from hypoxia-induced cell death. Cultures of hippocampal neurons were prepared from embryonic day 17 Sprague-Dawley rats. The hippocampi were dissociated into a single cell suspension by incubation with 0.25% trypsin, 40 mg/ml DNase followed by gentle trituration through a Pasteur pipet. The cells were plated in a polylysine-coated 96-well plate and maintained in a chemically defined medium until use. The cells were grown for 2 to 3 weeks in 5% CO2 -in-air humidified environment at 36° C. to establish a thick network of neuronal processes with numerous spontaneously active synapses. Exposure to hypoxic/anoxic environment was accomplished by placing the cultures in an anaerobic chamber, and flushing it with a mixture of 95% N2 +5% CO2 gas to rapidly drop the O2 tension to near zero. The O2 tension was maintained at near zero using a disposable H2 +CO2 generator envelope with palladium catalyst. Compound No. 1 was added to the culture medium prior to incubation in the anaerobic chamber and maintained there for 6 hours. Following 2 hours of exposure to normal O2 tension, the cultures were processed for morphological and quantitive biochemical neuronal cell viability assays.
The neuronal survival assay utilized the compound MTT [(3-(4,5-dimethylthiazol-2-yl)-2,5-diphenyl tetrazolium bromide)], a pale yellow substrate that is cleaved by the mitochondrial enzyme succinate-dehydrogenase to yield a dark blue formazan product. This process requires active mitochondria, present only in live cells. Cultures of hippocampal neurons grown in 96-well plates were incubated with 1 mg/ml MTT at 36° C. in a 10% CO2 -in-air incubator for 30-60 min. At the end of the incubation, a dark blue precipitate outlined only viable cells. The precipitate was then solubilized using 0.08N HCl/isopropanol mixture and the absorbance measured with an ELISA plate reader (Dynatech MR600) using a test wavelength of 570 nm and a reference wavelength of 630 nm. The resulting optical density is directly proportional to the number of viable cells.
Compound No. 1 was tested for its ability to protect neurons from glutamate-induced neurotoxicity, which selectively kills mature neurons while sparing glial cells. Neuronal cells were prepared and cell viability assays were performed as described in the chronic hypoxia insult assay, above.
Hippocampal cultures were exposed to 500 μM glutamate for 1 hour either in the presence or absence of Compound No. 1 and immediately thereafter processed for qualitative (morphological) and quantitative viability assay.

NMA = test: NMDA/KA antagonist assay in embryo retina: blocking NMA neurotoxicity; parameters: species or system chick embryo; details: NMA 200 μM, 30 min, 37° C.
Experimental: as §1

KA = test: NMDA/KA antagonist assay in embryo retina: blocking KA neurotoxicity; parameters: species or system chick embryo; details: KA 25 μM, 30 min, 37° C.; tested from 1000 μM downward
Experimental: as §1

NMDA [5] = details: Berry et al, Eur. J. Pharm., 96, 261-267 (1983); spinal neurones; cited from earlier work
[6] = test system: [^3 H]PCP binding sites, rat cerebral cortical membranes; details: Goldman et al, FEBS Lett., 170, 333-336 (1985); cited from earlier work

Structure (SMILES)	Ki (PCP receptors) [nM]	Stereotyped Behavior ED50 (rats)	Protection vs Quis (Quis)	Minimal concentration required to provide total protection vs NMA (NMA) [µM]	Protection vs KA (KA)	also measured
CNC1(c2ccccc2Cl)CCCCC1=O (stereo not drawn) [ketamine]	–	–	–	–	–	Reduction of the excitatory effects of NMDA as compared to KA and QUIS (NMDA [1]): reduce selectively the excitatory effects of NMDA
c1csc(C2(N3CCCCC3)CCCCC2)c1 [TCP]	20 ± 6	56 (49-76) nmol/rat	–	–	–	–
C1=CCN(C2(c3cccs3)CCCCC2)CC1 [Compound No. 1, 1-[1-(2-thienyl)-cyclohexyl]-1,2,5,6-tetrahydropyridine]	12 ± 2	43 (34-57) nmol/rat	Zero @ 250 μM	0.25	Partial @ 5 μM	EC (maximum protection) (hippocampal neurons [2]; Rattus norvegicus, Hippocampal neuron, hypoxia 6 hours, read-out: Concentration giving maximum protection of neurons from hypoxic insult): 50 µM; Optical Density (MTT, viable cells) (hippocampal neurons [2]; units + SDM, hypoxia + 50 μM compound, 6 hours, untreated control 0.163, hypoxia 0.062): 0.173 ± .033; Protection of neurons from sodium azide poisoning (hippocampal neurons [3]; 1 μM compound, 10 μM sodium azide, 1 hour): significant protection; Optical Density (MTT, viable cells) (hippocampal neurons [3]; units + SDM, sodium azide 1 hour + 1 μM compound, control 0.146, sodium azide 0.084): 0.138 ± .013; Protection from glutamate toxicity (hippocampal neurons [4]; 5 μM compound): significant protection; Protection from glutamate toxicity (hippocampal neurons [4]; 50 μM compound): Nearly complete protection; Optical Density (MTT, viable cells) (hippocampal neurons [4]; 5 μM compound): 0.147 ± .017; Optical Density (MTT, viable cells) (hippocampal neurons [4]; 50 μM compound): 0.157 ± .017
CC1CCC(c2ccccc2)(N2CCCCC2)CC1 (stereo not drawn) [cis-N-(1-phenyl-4-methylcyclohexyl)piperidine]	–	–	–	–	–	Stereoselective effects over isomer counterpart in reducing the excitatory action of NMDA (NMDA [5]): confirmed
CC1CCCN(C2(c3ccccc3)CCCCC2)C1 (single isomer, unassigned; (+)) [(+)-PCMP, (+)-1-(1-phenylcyclohexyl)-3-methylpiperidine]	–	–	–	–	–	Inhibition of specific binding of [^3 H]PCP [6]: potent inhibitor; Stereoselective effects over isomer counterpart in reducing the excitatory action of NMDA (NMDA [5]): confirmed
c1ccc(C2(N3CCCCC3)CCCCC2)cc1 [PCP, Phencyclidine]	96 ± 15	150 (120-180) nmol/rat	No Activity	1	No Activity	Reduction of the excitatory effects of NMDA as compared to KA and QUIS (NMDA [1]): reduce selectively the excitatory effects of NMDA; Time of peak behavioral effect (rats; after i.c.v. administration, 25-20000 nmol/rat): 5 min; Time of peak behavioral effect (rats; after i.p. administration, 2.0-32 mg/kg): 15 min
S=C=Nc1cccc(C2(N3CCCCC3)CCCCC2)c1 [Metaphit, 1-[1-(3-isothiocyanatophenyl)cyclohexyl]piperidine]	–	–	No Activity	50	No Activity	–
